Compound: c1ccc(-n2c3ccccc3c3ccccc32)cc1
- solubility (mole fraction) (in 1,4-dioxane, 288.15 K): 0.124
- solubility (mole fraction) (in 1,4-dioxane, 293.15 K): 0.213
- solubility (mole fraction) (in 1,4-dioxane, 298.15 K): 0.292
- solubility (mole fraction) (in 1,4-dioxane, 303.15 K): 0.417
- solubility (mole fraction) (in 1,4-dioxane, 308.15 K): 0.514
- solubility (mole fraction) (in 1,4-dioxane, 313.15 K): 0.717
- solubility (mole fraction) (in THF, 278.15 K): 0.249
- solubility (mole fraction) (in THF, 283.15 K): 0.274
- solubility (mole fraction) (in THF, 288.15 K): 0.309
- solubility (mole fraction) (in THF, 293.15 K): 0.346
- solubility (mole fraction) (in THF, 298.15 K): 0.386
- solubility (mole fraction) (in THF, 303.15 K): 0.439
- solubility (mole fraction) (in THF, 308.15 K): 0.497
- solubility (mole fraction) (in THF, 313.15 K): 0.562
- solubility (mole fraction) (in acetonitrile, 278.15 K): 0.00383
- solubility (mole fraction) (in acetonitrile, 283.15 K): 0.00413
- solubility (mole fraction) (in acetonitrile, 288.15 K): 0.00487
- solubility (mole fraction) (in acetonitrile, 293.15 K): 0.00582
- solubility (mole fraction) (in acetonitrile, 298.15 K): 0.00624
- solubility (mole fraction) (in acetonitrile, 303.15 K): 0.00735
- solubility (mole fraction) (in acetonitrile, 308.15 K): 0.00826
- solubility (mole fraction) (in acetonitrile, 313.15 K): 0.0102
- solubility (mole fraction) (in chloroform, 278.15 K): 0.237
- solubility (mole fraction) (in chloroform, 283.15 K): 0.262
- solubility (mole fraction) (in chloroform, 288.15 K): 0.322
- solubility (mole fraction) (in chloroform, 293.15 K): 0.399
- solubility (mole fraction) (in chloroform, 298.15 K): 0.461
- solubility (mole fraction) (in chloroform, 303.15 K): 0.555
- solubility (mole fraction) (in chloroform, 308.15 K): 0.651
- solubility (mole fraction) (in chloroform, 313.15 K): 0.753
- solubility (mole fraction) (in cyclohexane, 283.15 K): 0.034
- solubility (mole fraction) (in cyclohexane, 288.15 K): 0.0421
- solubility (mole fraction) (in cyclohexane, 293.15 K): 0.0523
- solubility (mole fraction) (in cyclohexane, 298.15 K): 0.0691
- solubility (mole fraction) (in cyclohexane, 303.15 K): 0.0815
- solubility (mole fraction) (in cyclohexane, 308.15 K): 0.101
- solubility (mole fraction) (in cyclohexane, 313.15 K): 0.132
- solubility (mole fraction) (in dichloromethane, 278.15 K): 0.223
- solubility (mole fraction) (in dichloromethane, 283.15 K): 0.246
- solubility (mole fraction) (in dichloromethane, 288.15 K): 0.311
- solubility (mole fraction) (in dichloromethane, 293.15 K): 0.385
- solubility (mole fraction) (in dichloromethane, 298.15 K): 0.453
- solubility (mole fraction) (in dichloromethane, 303.15 K): 0.548
- solubility (mole fraction) (in dichloromethane, 308.15 K): 0.644
- solubility (mole fraction) (in ethanol, 278.15 K): 0.00099
- solubility (mole fraction) (in ethanol, 283.15 K): 0.00167
- solubility (mole fraction) (in ethanol, 288.15 K): 0.00218
- solubility (mole fraction) (in ethanol, 293.15 K): 0.00271
- solubility (mole fraction) (in ethanol, 298.15 K): 0.00334
- solubility (mole fraction) (in ethanol, 303.15 K): 0.0042
- solubility (mole fraction) (in ethanol, 308.15 K): 0.00574
- solubility (mole fraction) (in ethanol, 313.15 K): 0.007
- solubility (mole fraction) (in isopropanol, 278.15 K): 0.001
- solubility (mole fraction) (in isopropanol, 283.15 K): 0.00131
- solubility (mole fraction) (in isopropanol, 288.15 K): 0.00215
- solubility (mole fraction) (in isopropanol, 293.15 K): 0.00244
- solubility (mole fraction) (in isopropanol, 298.15 K): 0.00303
- solubility (mole fraction) (in isopropanol, 303.15 K): 0.004
- solubility (mole fraction) (in isopropanol, 308.15 K): 0.00458
- solubility (mole fraction) (in isopropanol, 313.15 K): 0.00591
- solubility (mole fraction) (in methanol, 278.15 K): 6.96e-05
- solubility (mole fraction) (in methanol, 283.15 K): 0.00011
- solubility (mole fraction) (in methanol, 288.15 K): 0.000178
- solubility (mole fraction) (in methanol, 293.15 K): 0.000208
- solubility (mole fraction) (in methanol, 298.15 K): 0.000251
- solubility (mole fraction) (in methanol, 303.15 K): 0.000296
- solubility (mole fraction) (in methanol, 308.15 K): 0.000427
- solubility (mole fraction) (in methanol, 313.15 K): 0.00055
- solubility (mole fraction) (in n-butanol, 278.15 K): 0.00207
- solubility (mole fraction) (in n-butanol, 283.15 K): 0.00219
- solubility (mole fraction) (in n-butanol, 288.15 K): 0.00266
- solubility (mole fraction) (in n-butanol, 293.15 K): 0.00333
- solubility (mole fraction) (in n-butanol, 298.15 K): 0.00403
- solubility (mole fraction) (in n-butanol, 303.15 K): 0.00468
- solubility (mole fraction) (in n-butanol, 308.15 K): 0.00691
- solubility (mole fraction) (in n-butanol, 313.15 K): 0.00919
- solubility (mole fraction) (in n-hexane, 278.15 K): 0.0355
- solubility (mole fraction) (in n-hexane, 283.15 K): 0.0378
- solubility (mole fraction) (in n-hexane, 288.15 K): 0.0431
- solubility (mole fraction) (in n-hexane, 293.15 K): 0.0494
- solubility (mole fraction) (in n-hexane, 298.15 K): 0.0552
- solubility (mole fraction) (in n-hexane, 303.15 K): 0.0624
- solubility (mole fraction) (in n-hexane, 308.15 K): 0.0703
- solubility (mole fraction) (in n-hexane, 313.15 K): 0.078
- solubility (mole fraction) (in n-propanol, 278.15 K): 0.00298
- solubility (mole fraction) (in n-propanol, 283.15 K): 0.00323
- solubility (mole fraction) (in n-propanol, 288.15 K): 0.00412
- solubility (mole fraction) (in n-propanol, 293.15 K): 0.00517
- solubility (mole fraction) (in n-propanol, 298.15 K): 0.0061
- solubility (mole fraction) (in n-propanol, 303.15 K): 0.00749
- solubility (mole fraction) (in n-propanol, 308.15 K): 0.00936
- solubility (mole fraction) (in n-propanol, 313.15 K): 0.0116
